Calls of active or inactive are those of the source. No rule for the calls is given here.
Test system: CCRIS mutagenicity, Ames/micronucleus/aberration tests
Assay: CCRIS mutagenicity studies
[1] = Test System: AMES SALMONELLA TYPHIMURIUM, Strain/Indicator: TA1537, Metabolic Activation: NONE, Method: PREINCUBATION
[2] = Test System: MOUSE LYMPHOMA, Strain/Indicator: L5178Y (TK+/TK-), Metabolic Activation: NONE, Method: SUSPENSION/PLATE

## CCN(CC)C(=S)SSC(=S)N(CC)CC
Test System: AMES SALMONELLA TYPHIMURIUM, Strain/Indicator: TA98, Metabolic Activation: HAMSTER, LIVER, S-9, AROCLOR 1254 (10%), Method: PREINCUBATION
  mutagenic call: inactive; negative
Test System: AMES SALMONELLA TYPHIMURIUM, Strain/Indicator: TA98, Metabolic Activation: NONE, Method: PREINCUBATION
  mutagenic call: inactive; negative
Test System: AMES SALMONELLA TYPHIMURIUM, Strain/Indicator: TA98, Metabolic Activation: RAT, LIVER, S-9, AROCLOR 1254 (10%), Method: PREINCUBATION
  mutagenic call: inactive; negative
Test System: AMES SALMONELLA TYPHIMURIUM, Strain/Indicator: TA100, Metabolic Activation: HAMSTER, LIVER, S-9, AROCLOR 1254 (10%), Method: PREINCUBATION
  mutagenic call: inactive; negative
Test System: AMES SALMONELLA TYPHIMURIUM, Strain/Indicator: TA100, Metabolic Activation: NONE, Method: PREINCUBATION
  mutagenic call: inactive; negative
Test System: AMES SALMONELLA TYPHIMURIUM, Strain/Indicator: TA100, Metabolic Activation: RAT, LIVER, S-9, AROCLOR 1254 (10%), Method: PREINCUBATION
  mutagenic call: inactive; negative
Test System: AMES SALMONELLA TYPHIMURIUM, Strain/Indicator: TA1535, Metabolic Activation: HAMSTER, LIVER, S-9, AROCLOR 1254 (10%), Method: PREINCUBATION
  mutagenic call: inactive; negative
Test System: AMES SALMONELLA TYPHIMURIUM, Strain/Indicator: TA1535, Metabolic Activation: NONE, Method: PREINCUBATION
  mutagenic call: inactive; negative
Test System: AMES SALMONELLA TYPHIMURIUM, Strain/Indicator: TA1535, Metabolic Activation: RAT, LIVER, S-9, AROCLOR 1254 (10%), Method: PREINCUBATION
  mutagenic call: inactive; negative
Test System: AMES SALMONELLA TYPHIMURIUM, Strain/Indicator: TA1537, Metabolic Activation: HAMSTER, LIVER, S-9, AROCLOR 1254 (10%), Method: PREINCUBATION
  mutagenic call: inactive; negative
[1]
  mutagenic call: inactive; negative
Test System: AMES SALMONELLA TYPHIMURIUM, Strain/Indicator: TA1537, Metabolic Activation: RAT, LIVER, S-9, AROCLOR 1254 (10%), Method: PREINCUBATION
  mutagenic call: inactive; negative
[2]
  mutagenic call: active; positive

## O=CC=O
End Point: IN VITRO CHROMOSOMAL ABERRATIONS, Test System: CHL CELLS, Metabolic Activation: NONE
  mutagenic call: active; positive (structural and ploidy changes)
End Point: IN VITRO CHROMOSOMAL ABERRATIONS, Test System: CHL CELLS, Metabolic Activation: RAT, LIVER, S-9, SODIUM PHENOBARBITAL AND 5,6-BENZOFLAVONE
  mutagenic call: active; positive (structural and ploidy changes)
Test System: AMES SALMONELLA TYPHIMURIUM, Strain/Indicator: TA97, Metabolic Activation: NONE, Method: PREINCUBATION
  mutagenic call: inactive; negative
Test System: AMES SALMONELLA TYPHIMURIUM, Strain/Indicator: TA98, Metabolic Activation: RAT, LIVER, S-9, AROCLOR 1254, Method: PREINCUBATION
  mutagenic call: active; positive
Test System: AMES SALMONELLA TYPHIMURIUM, Strain/Indicator: TA100, Metabolic Activation: NONE
  mutagenic call: active; positive
Test System: AMES SALMONELLA TYPHIMURIUM, Strain/Indicator: TA100, Metabolic Activation: NONE, Method: STANDARD PLATE
  mutagenic call: active; positive
Test System: AMES SALMONELLA TYPHIMURIUM, Strain/Indicator: TA100, Metabolic Activation: RAT LIVER S-9, PHENOBARBITAL AND BETA-NAPHTHOFLAVONE, Method: PREINCUBATION
  mutagenic call: active; positive
Test System: AMES SALMONELLA TYPHIMURIUM, Strain/Indicator: TA100, Metabolic Activation: RAT, LIVER, S-9, AROCLOR 1254, Method: PREINCUBATION
  mutagenic call: active; positive
Test System: AMES SALMONELLA TYPHIMURIUM, Strain/Indicator: TA100, Metabolic Activation: RAT, LIVER, S-9, PHENOBARBITAL AND 5,6-BENZOFLAVONE, Method: PREINCUBATION
  mutagenic call: active; positive
Test System: AMES SALMONELLA TYPHIMURIUM, Strain/Indicator: TA100, Metabolic Activation: S-9
  mutagenic call: active; positive
Test System: AMES SALMONELLA TYPHIMURIUM, Strain/Indicator: TA102, Metabolic Activation: RAT, LIVER, S-9, AROCLOR 1254, Method: PREINCUBATION
  mutagenic call: active; positive
Test System: AMES SALMONELLA TYPHIMURIUM, Strain/Indicator: TA102, Metabolic Activation: RAT, LIVER, S-9, AROCLOR 1254, Method: STANDARD PLATE
  mutagenic call: active; positive
Test System: AMES SALMONELLA TYPHIMURIUM, Strain/Indicator: TA102, Metabolic Activation: RAT, LIVER, S-9, PHENOBARBITAL AND 5,6-BENZOFLAVONE, Method: PREINCUBATION
  mutagenic call: active; positive
Test System: AMES SALMONELLA TYPHIMURIUM, Strain/Indicator: TA104, Metabolic Activation: NONE, Method: PREINCUBATION
  mutagenic call: active; positive
Test System: AMES SALMONELLA TYPHIMURIUM, Strain/Indicator: TA104, Metabolic Activation: RAT, LIVER, S-9, PHENOBARBITAL AND 5,6-BENZOFLAVONE, Method: PREINCUBATION
  mutagenic call: active; positive
Test System: AMES SALMONELLA TYPHIMURIUM, Strain/Indicator: TA1535, Metabolic Activation: RAT LIVER S-9, PHENOBARBITAL AND BETA-NAPHTHOFLAVONE, Method: PREINCUBATION
  mutagenic call: active; positive
[1]
  mutagenic call: active; positive
Test System: AMES SALMONELLA TYPHIMURIUM, Strain/Indicator: TA1537, Metabolic Activation: RAT LIVER S-9, PHENOBARBITAL AND BETA-NAPHTHOFLAVONE, Method: PREINCUBATION
  mutagenic call: inactive; negative
Test System: AMES SALMONELLA TYPHIMURIUM, Strain/Indicator: TA2638A, Metabolic Activation: RAT LIVER S-9, AROCLOR 1254, Method: STANDARD PLATE
  mutagenic call: active; positive
Test System: AMES SALMONELLA TYPHIMURIUM, Strain/Indicator: TA7001, Metabolic Activation: NONE, Method: PREINCUBATION
  mutagenic call: inactive; negative
Test System: AMES SALMONELLA TYPHIMURIUM, Strain/Indicator: TA7002, Metabolic Activation: NONE, Method: PREINCUBATION
  mutagenic call: inactive; negative
Test System: AMES SALMONELLA TYPHIMURIUM, Strain/Indicator: TA7003, Metabolic Activation: NONE, Method: PREINCUBATION
  mutagenic call: inactive; negative
Test System: AMES SALMONELLA TYPHIMURIUM, Strain/Indicator: TA7004, Metabolic Activation: NONE, Method: PREINCUBATION
  mutagenic call: active; positive
Test System: AMES SALMONELLA TYPHIMURIUM, Strain/Indicator: TA7005, Metabolic Activation: NONE, Method: PREINCUBATION
  mutagenic call: active; positive
Test System: AMES SALMONELLA TYPHIMURIUM, Strain/Indicator: TA7006, Metabolic Activation: NONE, Method: PREINCUBATION
  mutagenic call: active; positive
Test System: E. COLI, Strain/Indicator: W3110, Metabolic Activation: NONE, Method: PREINCUBATION
  mutagenic call: active; positive
Test System: E. COLI, Strain/Indicator: WP2UVRA, Metabolic Activation: NONE, Method: PREINCUBATION
  mutagenic call: active; positive
Test System: E. COLI, Strain/Indicator: WP2UVRA, Metabolic Activation: RAT LIVER S-9, PHENOBARBITAL AND BETA-NAPHTHOFLAVONE, Method: PREINCUBATION
  mutagenic call: active; positive
[2]
  mutagenic call: active; positive

From PubChem BioAssay AID1259407 (Chemical Carcinogenesis Research Information System (CCRIS), 2018)
